According to PMC11851430, “Workflow for E3 Ligase Ligand Validation for PROTAC Development” (ACS Chemical Biology, 2025):

Columns and labels:
Assay type in all cases: binding
MAP2K6A = target: T1, MAP2K6A (Homo sapiens, UniProt P52564); test: DSF assay; conditions: 20 µM compound
T1 construct: purchased in-house DSF panel (SGC-style construct names; the trailing A/B is a construct suffix)
T1 sequence (P52564 1-334): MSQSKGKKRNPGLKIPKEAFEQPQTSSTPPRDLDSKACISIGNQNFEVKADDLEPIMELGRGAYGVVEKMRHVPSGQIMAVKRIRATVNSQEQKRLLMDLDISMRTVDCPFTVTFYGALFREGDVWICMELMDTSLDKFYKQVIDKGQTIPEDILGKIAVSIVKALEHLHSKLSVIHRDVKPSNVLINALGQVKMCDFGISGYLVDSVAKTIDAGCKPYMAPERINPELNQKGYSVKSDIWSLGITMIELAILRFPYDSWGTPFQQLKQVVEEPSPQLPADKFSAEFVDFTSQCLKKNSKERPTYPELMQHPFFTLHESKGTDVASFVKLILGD

AAK1 = target: T2, AAK1 (Homo sapiens, UniProt Q2M2I8); test: Kinobeads selectivity profiling; conditions: Jurkat lysate, dose series given in nM; for Kd: read-out: Kd (apparent dissociation constant, corrected for protein depletion)
T2 construct: endogenous in cells; host or cells: Jurkat (Clone E6.1) cell lysate
T2 sequence (Q2M2I8 whole entry): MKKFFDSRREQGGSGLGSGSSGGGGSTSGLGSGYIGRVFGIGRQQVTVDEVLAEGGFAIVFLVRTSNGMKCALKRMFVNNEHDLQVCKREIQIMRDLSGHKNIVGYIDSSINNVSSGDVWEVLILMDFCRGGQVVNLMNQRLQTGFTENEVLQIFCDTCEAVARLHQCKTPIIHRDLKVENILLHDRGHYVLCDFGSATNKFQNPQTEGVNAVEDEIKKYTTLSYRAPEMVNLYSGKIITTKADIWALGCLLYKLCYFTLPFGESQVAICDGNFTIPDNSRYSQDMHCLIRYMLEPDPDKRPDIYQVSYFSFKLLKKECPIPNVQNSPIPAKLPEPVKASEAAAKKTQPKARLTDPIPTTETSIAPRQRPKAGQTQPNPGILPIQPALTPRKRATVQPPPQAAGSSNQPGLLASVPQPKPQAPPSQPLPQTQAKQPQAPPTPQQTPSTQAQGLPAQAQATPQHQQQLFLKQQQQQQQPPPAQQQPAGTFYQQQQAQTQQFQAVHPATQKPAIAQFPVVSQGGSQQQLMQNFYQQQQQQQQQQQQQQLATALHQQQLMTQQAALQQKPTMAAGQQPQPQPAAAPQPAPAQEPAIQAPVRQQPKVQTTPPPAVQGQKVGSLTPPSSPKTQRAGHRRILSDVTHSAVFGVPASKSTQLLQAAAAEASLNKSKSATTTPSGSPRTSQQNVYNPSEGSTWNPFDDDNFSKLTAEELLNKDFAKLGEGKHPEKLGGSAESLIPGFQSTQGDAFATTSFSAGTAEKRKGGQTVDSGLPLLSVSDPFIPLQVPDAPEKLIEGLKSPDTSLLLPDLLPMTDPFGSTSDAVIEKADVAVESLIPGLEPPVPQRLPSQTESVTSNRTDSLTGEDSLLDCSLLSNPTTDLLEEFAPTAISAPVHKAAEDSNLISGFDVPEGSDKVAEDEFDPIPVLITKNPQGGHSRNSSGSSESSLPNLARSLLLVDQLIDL
Method: Excitation and emission filters […]
curve. […] Measurements were
Kinobeads selectivity profiling of PROTACs
(Multiplexion, Heidelberg, Germany).
The cell lysate was ultracentrifuged and diluted
NaF, 1 mM DTT, protease inhibitors and phosphatase inhibitors to a final concentration of 5 mg/ml as determined by Bradford assay. For selectivity profiling of compounds the cell lysate (2.5 mg of total proteins per pulldown) was pre-incubated with increasing compound […]
µM) for 45 min at 4 °C in an end-over-end shaker. Subsequently, lysates were incubated with Kinobeads epsilon (17 µL settled beads) for 30 min at 4 °C. To assess the degree of protein depletion from the lysates by Kinobeads, the flow-through of the DMSO control was recovered […]
for a pulldown of pulldown experiment where the lysate was incubated a second time with fresh Kinobeads. Beads were washed in 3 steps with buffer containing 0.4%, 0.2% and no NP40.
Bound proteins were reduced with 50 mM DTT in 8 M Urea, 40 mM Tris-HCl pH 7.4 for 30 min at room temperature. After alkylation with 55 mM chloroacetamide (CAA), the Urea concentration was reduced to 1 – 2 M and proteins were digested using trypsin. Acidified peptides were desalted and concentrated using SepPak tC18 µEluation plates (Waters).
Samples were frozen, dried by vacuum centrifugation and stored at -20 °C.
LC-MS2 analysis. Peptides were measured on a Dionex Ultimate3000 nano HPLC coupled online to an Orbitrap Fusion Lumos (Thermo Fisher Scientific) mass spectrometer.
Peptides were dissolved in 0.1% formic acid and delivered to a trap column (ReproSil-pur C18-AQ, 5 μm, Dr. Maisch, 20 mm × 75 μm, self-packed) at a flow rate of 5 μL/min in LC solvent A (0.1 % formic acid).4 After 10 min of loading, peptides were transferred to an analytical column (ReproSil Gold C18-AQ, 3 μm, Dr. Maisch, 400 mm × 75 μm, self-packed) and separated using […]
acetonitrile) in LC solvent A.
The Orbitrap Fusion Lumos was operated as follows: positive polarity; spray voltage 2.1 kV, […]
A full-scan (MS1) was recorded from 360 to 1300 m/z with a resolution of 60,000 in the Orbitrap in profile mode. The MS1 AGC target was set to 4e5 and the maxIT was set to 50 ms, RF lens value was set to 50%. Based on the full scans, precursors were targeted for the MS/MS scans […]
intensity exceeded 2.5e4. The dynamic exclusion was set to 30 sec and exclude isotopes was switched on. The MS2 quadrupole isolation window was set to 1.7 m/z. Peptide fragmentation occurred in the ion routing multipole (IRM) by HCD with a fixed collision energy mode, the […]

RIOK1A = target: T3, RIOK1A (Homo sapiens, UniProt Q9BRS2); test: DSF assay; conditions: 20 µM compound
T3 construct: purchased in-house DSF panel (SGC-style construct names; the trailing A/B is a construct suffix)
T3 sequence (Q9BRS2 143-494): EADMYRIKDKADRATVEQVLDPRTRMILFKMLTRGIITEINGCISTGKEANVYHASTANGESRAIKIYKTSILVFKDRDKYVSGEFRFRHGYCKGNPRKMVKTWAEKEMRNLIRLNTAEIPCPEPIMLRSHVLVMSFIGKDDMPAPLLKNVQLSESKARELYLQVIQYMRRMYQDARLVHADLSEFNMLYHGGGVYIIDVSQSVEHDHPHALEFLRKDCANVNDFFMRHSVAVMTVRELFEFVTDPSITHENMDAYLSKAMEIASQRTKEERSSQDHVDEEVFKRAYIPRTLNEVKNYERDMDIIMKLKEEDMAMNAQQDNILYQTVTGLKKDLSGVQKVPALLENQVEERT

MAPK15A = target: T4, MAPK15A (Homo sapiens, UniProt Q8TD08); test: DSF assay; conditions: 20 µM compound
T4 construct: purchased in-house DSF panel (SGC-style construct names; the trailing A/B is a construct suffix)
T4 sequence (Q8TD08 1-345): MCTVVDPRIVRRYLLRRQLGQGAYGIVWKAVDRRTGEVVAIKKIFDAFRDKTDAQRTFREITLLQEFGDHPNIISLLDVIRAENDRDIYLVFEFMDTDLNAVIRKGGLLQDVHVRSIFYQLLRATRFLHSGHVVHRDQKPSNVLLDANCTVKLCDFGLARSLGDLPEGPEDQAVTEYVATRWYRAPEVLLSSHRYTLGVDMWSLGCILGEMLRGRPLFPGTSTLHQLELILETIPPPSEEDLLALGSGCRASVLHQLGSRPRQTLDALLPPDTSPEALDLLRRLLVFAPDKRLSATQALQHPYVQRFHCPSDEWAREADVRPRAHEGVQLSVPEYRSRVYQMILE

DCAMKL1A = target: T5, DCAMKL1A (Homo sapiens, UniProt O15075); test: DSF assay; conditions: 20 µM compound
T5 construct: purchased in-house DSF panel (SGC-style construct names; the trailing A/B is a construct suffix)
T5 sequence (O15075 372-649): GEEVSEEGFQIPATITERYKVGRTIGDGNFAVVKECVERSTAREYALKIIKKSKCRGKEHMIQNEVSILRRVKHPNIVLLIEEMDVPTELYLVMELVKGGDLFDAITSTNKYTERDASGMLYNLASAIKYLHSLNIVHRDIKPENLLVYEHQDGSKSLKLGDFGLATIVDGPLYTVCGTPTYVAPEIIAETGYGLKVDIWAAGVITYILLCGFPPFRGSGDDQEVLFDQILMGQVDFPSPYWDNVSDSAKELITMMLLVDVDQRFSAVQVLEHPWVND

CSNK2A2A = target: T6, CSNK2A2A (Homo sapiens, UniProt P19784); test: DSF assay; conditions: 20 µM compound
T6 construct: purchased in-house DSF panel (SGC-style construct names; the trailing A/B is a construct suffix)
T6 sequence (P19784 whole entry): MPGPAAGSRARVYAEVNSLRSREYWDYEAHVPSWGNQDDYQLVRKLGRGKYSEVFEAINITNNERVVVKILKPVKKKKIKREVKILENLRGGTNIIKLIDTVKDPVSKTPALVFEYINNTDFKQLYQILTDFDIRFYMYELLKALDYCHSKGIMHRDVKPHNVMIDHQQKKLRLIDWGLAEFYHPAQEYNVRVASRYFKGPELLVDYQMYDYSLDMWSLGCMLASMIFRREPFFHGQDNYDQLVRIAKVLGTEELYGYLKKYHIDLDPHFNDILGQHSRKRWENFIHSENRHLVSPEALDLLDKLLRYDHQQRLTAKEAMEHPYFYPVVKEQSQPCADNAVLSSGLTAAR

MAP2K4 = target: T7, MAP2K4 (Homo sapiens, UniProt P45985); test: DSF assay; conditions: 20 µM compound
T7 construct: purchased in-house DSF panel (SGC-style construct names; the trailing A/B is a construct suffix)
T7 sequence (P45985 102-367): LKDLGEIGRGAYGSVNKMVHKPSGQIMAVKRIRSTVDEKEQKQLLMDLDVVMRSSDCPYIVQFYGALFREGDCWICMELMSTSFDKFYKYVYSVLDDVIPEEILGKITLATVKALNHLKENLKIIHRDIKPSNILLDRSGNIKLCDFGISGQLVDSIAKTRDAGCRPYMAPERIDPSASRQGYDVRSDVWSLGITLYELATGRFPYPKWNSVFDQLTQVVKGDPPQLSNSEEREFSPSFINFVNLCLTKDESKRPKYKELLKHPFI

ΔTm at 20 µM (MAP2K6A) [°C]	Kd (AAK1) [nM]	ΔTm at 20 µM (RIOK1A) [°C]	ΔTm at 20 µM (DCAMKL1A) [°C]	ΔTm at 20 µM (CSNK2A2A) [°C]	ΔTm at 20 µM (MAP2K4) [°C]	Kd (apparent dissociation constant, corrected for protein depletion) (AAK1)	SMILES	ΔTm at 20 µM (MAPK15A) [°C]
5.77	6.67	-0.05	0.22	8.28	2.65	–	CC(C)(C)OC(=O)NCCOCCOCCOCCOCCC(=O)N1CCN(c2cc(Nc3cc(C4CC4)[nH]n3)nc(Nc3ccc(CC#N)cc3)n2)CC1 [4-L]	16.4
5.96	35.5	5.35	4.7	6.77	2.91	–	CC(C)(C)OC(=O)NCCCOCCOCCOCCCNC(=O)c1cc(Nc2cc(C3CC3)[nH]n2)nc(Nc2ccc(CC#N)cc2)n1 [5-L]	17
8.41	–	4.9	0.68	7.92	5.55	62.7409	CCOC(=O)c1cc(Nc2cc(C3CC3)[nH]n2)nc(Nc2ccc(CC#N)cc2)n1 [compound 5]	14.8
